The results in this text go back to patent US11679168B2, “Caspase-3-triggered molecular self-assembling PET probes and uses thereof” (The Board of Trustees of the Leland Stanford Junior …, priority 2018, dated 2023).

One series concerns H460 cells. Kind of series: Radiotracer uptake in H460 cells. The class given is cell-based, human. How it is done:
Temporal changes in cell-associated radioactivity in drug-treated cells or vehicle cells were measured with [18F]-C-SNAT4. Data are means±SD (n=3 per group). *, P<0.05; **, P<0.01; ***, P<0.005; *****, P<0.0001.
FIG. 22 illustrates that a mixture strategy enhances [^18F]-C-SNAT4 uptake in radiation (a single dose at 10 Gy) treated cells and vehicle human non-small cell lung cancer H460 cells. 40 μCi of mixture tracer [^18F]/[^19F]-C-SNAT4 (at ratio of 1:80 or 1:200) or 40 μCi [^18F]-C-SNAT4 were incubated in cells for 1 hour at 24 h post-IR treatment and radioactivity of [^18F] was measured using γ-counter. Data are means±SD (n=3 each group). *, P<0.05; **, P<0.01; ***, P<0.001.
Radiotracer uptake in cells: H460 and H1299 cells (2×10^5) were plated in 6-well cell culture plates over night before [^18F]-C-SNAT4 uptake analysis. […] After 24 h treatment, fresh, prewarmed RPMI Medium 1640 containing 1.48 MBq (40 μCi) [^18F]-C-SNAT4 was added to individual wells (1 ml/well; 13.3 pmol). At post 10, 30, 60 min, medium was removed, cells were lifted by trypsinization, and washed three-times with cold PBS. Radioactivity contained in cell pellets was measured using a gamma counter, with counts normalized to total protein concentration as determined by cell digestion using RIPA buffer followed by protein quantitation by the Bradford method. The final radiotracer [^18F]-C-SNAT4 uptake concentration was expressed as μM of % uptake/mg protein. Results were normalized to a vehicle control (PBS for [^18F]-C-SNAT4 experiments at different time-points) which was washed.

In a further series the test system is H460 tumor. Nature of the series: PET/CT imaging of H460 tumor-bearing mice. In kind it is in vivo. How it is done:
FIGS. 4A and 4D illustrate representative 55- to 60-min axial and sagittal fused PET/CT images. Nude mice received approximately 200 μCi of [18F]-C-SNAT4 via tail vein injection, with PET/CT images acquired at 55 to 60 min after injection. Arrowheads indicate the tumor, identified from the CT images. H460 and H1299 tumor bearing mice were naïve, or 24 h following last dose of cisplatin treatment (Low dose: 3 mg/kg every other day for three times; high dose: 9 mg/kg every other day for three times).
Animal model and probe administration: For subcutaneous tumor models, H460 or H1299 (2×10^6 cells in 100 μl of PBS) were injection subcutaneously on the back of female nu/nu nude mice (aged 6 to 8 weeks; Charles River Laboratories). Tumor dimensions were measured periodically using a caliper (by the same researcher), with tumor volumes calculated by the following equation: volume=a×b×c/2, where a, b, and c represent three orthogonal axis of the tumor. Treatment-response analysis was performed 24 h after drug treatment. For all other experiments, animals were culled 26 h after therapy and tissues excised for analysis. For chemotherapy mouse model, tumors were grown to about 150 mm^3, and then treatment that consisted of cisplatin (Sigma-Aldrich; Low dose: 3 mg/kg; high dose: 9 mg/kg) or saline was initiated through intravenous administration, every other day for three times. Total mouse body weight and tumor size were measured every other day. Treat or left untreated. For radiotherapy mouse model, treatment consisted of two fractions of 5 Gy or 2 Gy dose of radiation therapy delivered with a single 225 kV beam using the Kimtron IC 225 irradiator (Kimtron Medical, CT, USA).
Small-animal PET/CT imaging and analysis: PET/CT imaging was carried out on a docked Siemens Inveon PET/CT scanner (matrix size, 128×128×159; CT attenuation-corrected; non-scatter corrected) (Siemens Medical Solutions USA) following a bolus intravenous injection of approximately 200 μCi of [^18F]-C-SNAT4 into tumor-bearing mice (n=56, 3-4 mice per group). Dynamic scans were acquired in list mode format over 90 min, and sorted into 22 times of frames, 0.5-mm sinogram bins for image reconstruction (4×15 s, 4×60 s, 11×300 s, 3×600 s). Mice were anesthetized with 2% isoflurane near the center of the FOV to ensure the highest image resolution and sensitivity. Iterative reconstruction was performed using 3D ordered-subsets expectation maximization (3D-OSEM) followed by fast maximum a posteriori (fast MAP) with the following parameters: MAP OSEM iterations, 2; MAP subsets, 16; MAP iterations, 18. Siemens Inveon Research Workplace software v.4.0 was used for visualization of radiotracer uptake in the tumor, to define the three-dimensional (3D) volumes of interest (VOI) and for 3D-visualisation to create volume rendering technique (VRT) images. The relative tumor or organ radioactivity concentrations were from mean pixel values within the multiple ROI volumes. The radioactivity concentration within organs was obtained from mean pixel values with in the VOI and converted to counts per milliliter per min and then divided by the injected dose (ID) to obtain an imaging VOI-derived percentage of the injected radioactive dose per cubic centimeter of tissue (% ID/cc).

A short description of series [1]: Ex vivo biodistribution in H460 tumor-bearing mice. Conditions: 2 h post injection. The procedure: FIG. 20 illustrates biodistribution of [^18F]-C-SNAT4 in H460 tumor-bearing female nude mice. Mice were administered approximately 200 μCi [^18F]-C-SNAT4, animal were exsanguinated through the left ventricle and indicated tissues were excised at 2 hours post-injection in mice bearing naïve-tumor (black) or drug-treated tumor (gray). Data represent the mean±S.D. (n=4 animals per groups)
Biodistribution study: H460 or H1299 tumor-bearing female nude mice were administered approximately 7.4 MBq of [^18F]-C-SNAT4 via the tail vein (n=4-5 per group). Mice were maintained under anesthesia and warmed to 37° C. to replicate imaging conditions. At 90 min after [^18F]-C-SNAT4 injection, animals were sacrificed by exsanguination via cardiac puncture. For all animals, tumors were excised immediately upon death, weighed using pre-weighted tubes, and rapidly placed in 10% formalin (Fisher Scientific) for fixation. Tumor and tissue decay-corrected radioactivity was subsequently determined using a Cobra II Auto-Gamma counter (Packard Biosciences Co, UK.) Predefined 1.85 MBq (50 μCi) standards (50 μl) were also counter for data normalization to injected dose. Data were expressed as percent injected dose per gram of tissue (% ID/g).

Where [2] appears, read: H460, 2 Gy-treated tumor, [18F]-C-SNAT4 only.

Each structure is given as a SMILES string.

Turning to `CCSSCC(NC(=O)C(CC(=O)O)NC(=O)C(NC(=O)C(CCC(=O)O)NC(=O)C(CC(=O)O)NC(C)=O)C(C)C)C(=O)NCC(=O)NC(Cc1cn(CCOCCOCCOCC[18F])nn1)C(=O)NCc1ccc(C(=O)NCCCOc2cnc(C#N)nc2)cc1` (stereo not drawn) [[^18F]-C-SNAT4], in the series with H460 cells (H460, 10 min post incubation), the “uptake of high dose-treated cells relative to control cells” value is listed as 5.8 fold. For the same molecule, in the series on H460 cells (H460, 60 min post incubation), the “uptake of low dose-treated cells relative to control cells” value was found to be 2.4 fold. In addition, the cell uptake is 3.9±0.4 % uptake/mg protein in the series with H460 cells (IR-treated (10 Gy, 24 h) H460, hot tracer only, 1 h); 2.3 % radioactivity/mg protein in the series on H460 cells (cisplatin high dose (13.5 μM, 24 h) treated H460, 10 min post incubation); 0.7±0.1 % uptake/mg protein with H460 cells (cisplatin low dose (4.5 μM, 24 h) treated H460, 10 min); 1.45±0.11 % radioactivity/mg protein in the series with H460 cells (cisplatin low dose (4.5 μM, 24 h) treated H460, 60 min); 0.4±0.1 % uptake/mg protein in the series on H460 cells (control H460 cells of high dose experiment, 10 min post incubation); 2.8±0.3 % uptake/mg protein in the series with H460 cells (non-treated H460, hot tracer only). Further, the cell uptake with H460 cells (untreated H460, 10 min) is 0.5±0.1 % radioactivity/mg protein; in the series on H460 cells (untreated H460, 60 min), 0.4 % uptake/mg protein. Further, the “AUC of time activity curve” value with H460 tumor (setting [2]) was 123.6±30.9 % ID min/cc; in the series on H460 tumor (H460, 5 Gy-treated, hot tracer only, t=0 to 85 min), 279.4±16.6 % ID min/cc; in the series on H460 tumor (H460, high dose cisplatin treated, t=0 to 85 min), 148.9±10.1 % ID min/cc; with H460 tumor (H460, low dose cisplatin treated, t=0 to 85 min), 116.7±6.0 % ID min/cc; in the series with H460 tumor (H460, naive tumor, t=0 to 85 min) it was 67.5±12.0 % ID min/cc; in the series with H460 tumor (H460, naïve tumors (2 Gy experiment)), 92.1±20.9 % ID min/cc. Also, the tumor uptake in the series on H460 tumor (setting [2]) turned out to be 1.2±0.3 % ID/cc; in the series with H460 tumor (H460, high dose cisplatin (9 mg/kg x3) treated, 85 min post-injection), 1.7±0.1 % ID/cc; with H460 tumor (H460, low dose cisplatin (3 mg/kg x3) treated, 85 min post-injection), 1.2±0.1 % ID/cc; in the series with H460 tumor (H460, naïve animals, 85 min post-injection), 0.7±0.11 % ID/cc; in the series with H460 tumor (H460, two fractions of 5 Gy, hot tracer only, 85 min post injection) it was 1.0±0.3 % ID/cc; in the series on H460 tumor (H460, untreated tumor (2 Gy experiment)), 0.8±0.1 % ID/cc. Further, the tumor uptake with H460 tumor (H460, untreated tumor, hot tracer (mixture comparison), 85 min) was 0.4±0.1 % ID/cc. Also, in series [1], the clearance route entry is reported as “predominantly renal clearance”.
